Here are results for four molecules from publication PMC3942691, “The Dipeptide Monoester Prodrugs of Floxuridine and Gemcitabine—Feasibility of Orally Administrable Nucleoside Analogs” (Pharmaceuticals, 2014).

Read-outs that look alike come from different tables or passages of the source.

Data set [1] deals with mouse jejunum. Put plainly: In situ single-pass intestinal perfusion in mice (Peff). The data set is classed as in vivo. The settings on record: for Peff, mouse perfusion: 100 µM; for fold higher membrane permeability than parent drug: in situ. The procedure: The perfusion buffer (pH6.0) consisted of 145 mM NaCl, 0.5 mM MgCl2, 1 NaH2PO4, 1 mM CaCl2, 3 mM KCl, 5 mM glucose, and 5 mM MES. The pH of the buffer was adjusted to pH6.0. This perfusion buffer also contained phenol-red (14 µM) as a non-absorbable marker for water flux measurements.
All animal experiments were conducted using protocols approved by the University of Michigan Committee of Use and Care of Animals (UCUCA). Female BALB/c mice (Charles River, IN, USA) weighing 20–25 g were used for all perfusion studies. Prior to each experiment, mice were fasted overnight with free access to water.
The procedure for the in situ single-pass intestinal perfusion is previously reported. Briefly, mice were anesthetized with an i.m. injection of ketamine-xylazine mixture (ketamine: 80–120 mg/kg, xylazine: 5–10 mg/kg) and placed on a heated pad maintained at 37 °C. The abdomen was opened by a midline incision and a jejunal segment (approximately 10 cm) was carefully exposed to cannulate both ends with flexible PVC tubing (2.06 mm i.d., Fisher Scientific Inc., Pittsburgh, PA, USA). All solutions were incubated in a 37 °C water-bath. The isolated segment was rinsed with blank perfusion buffer to clean out any residual debris.
At the start of the study, the test compound (100 µM) in perfusion buffer (pH 6.0) including phenol red was perfused through the intestinal segment (Watson-Marlow Pump 323S, Watson-Marlow Bredel Inc., Wilimington, MA, USA), at the flow rate of 0.1 mL/min. The perfusion buffer was perfused for 30 min to assure steady-state and samples were taken in every 10 min for 90 min. At the end of perfusion, blood samples were collected by cardiac puncture. Blood samples with heparin were centrifuged at 1,000 × g for 10 min at 4 °C to collect plasma samples for LC-MS analysis. Following the termination of the experiment, the length of each perfused intestinal segment was measured.
The net water flux in the mouse perfusion studies was determined using phenol red (14 µM), a non-absorbed and non-metabolized marker. The measured Cout/Cin ratio of test compound was corrected for water flux according to the following equation: [drawing 1] where Cin phenol red and Cout phenol red are equal to the concentration of phenol red in the inlet and the outlet samples, respectively. The effective permeability (Peff; cm/s) through the mouse intestinal wall in the single-pass intestinal perfusion studies was determined according to the following equation: [drawing 2] where Q is the perfusion buffer flow rate (0.1 mL/min), C′out/C′in is the ratio of the outlet/inlet concentration of test compound that is adjusted for water transport, R is the radius of the intestinal segment (set to 0.1 cm), and L is the length of the perfused intestinal segment.
The stability samples of prodrugs and their metabolites, and perfusion samples were determined on an Agilent HPLC system (Agilent Technologies, Santa Clara, CA, USA). The HPLC system consisted of Agilent pumps (1100 series), an Agilent autosampler (1200 series), and an Agilent UV-Vis detector (1100 series) controlled by Chemstation® 32 software (version B.01.03). Samples were resolved in an Agilent Eclipse Plus C18 reverse-phase column (3.5 µm, 4.6 × 75 mm) equipped with a guard column. The mobile phase consisted of 0.1% TFA/water (Solvent A) and 0.1% TFA/acetonitrile (Solvent B) with the solvent B gradient changing from 0%–56% at a rate of […] during a 15 min run for gemcitabine and gemcitabine prodrugs. Standard curves generated for each prodrug and their parent drug were utilized for quantitation of integrated area under peaks. The detection wavelength was 254 nm and spectra were acquired in the 220–380 nm wavelength range. The detection wavelength for phenol red was 430 nm.

A short description of data set [2]: Chemical stability in 0.01 N HCl, SIF (pH 6.0) and pH 7.4 phosphate buffer. It is filed as physicochemical. The procedure:
The nonenzymatic hydrolysis of the prodrugs was determined as described above, except that each well contained pH 7.4 phosphate buffers (10 mmol/L) instead of cell homogenate.
The experiments concerning drug and their prodrug stability were performed at 37 °C in 0.01 N HCl, SIF (pH 6.0), and pH 7.4 phosphate buffer. […] Prodrug metabolites such as floxuridine, 5-fluorouracil (5-FU), gemcitabine, 2′-deoxy-2′,2′-difluorouridine, uracil, and cytosine were monitored along with prodrug disappearance in this experiment.

Data set [3] has as its system AsPC-1 cells. Put plainly: Uptake study in AsPC-1 cells. The data set is classed as cell-based. The settings on record: 0.1 mM, 1 h. The procedure:
Caco-2, Panc-1, and AsPC-1 cells were grown on a 6-well plate for 18, 6, and 6 days, respectively. Wells were rinsed with MES (pH 6.0) buffer twice. Fresh MES buffer was reapplied to each well and incubated at 37 °C for 15 min. Each drug was individually tested from freshly prepared solutions in MES buffer (0.1 mM, total 0.3 mL) with the presence and the absence of 10 mM glycyl-proline (Gly-Pro). The solution was placed in each well and incubated at 37 °C for 60 min. Drug solution was removed and 3 mL of ice-cold PBS was immediately placed in each well. Each well was rinsed with 3 mL of cold-PBS twice and 0.5 mL of methanol/H2O (1:1) containing 0.1% TFA was placed in each well. The cell suspension was collected and transferred to a new tube. Those tubes were spun at 1,000 × g at 4 °C for 5 min. The supernatant was mixed with equal amount of water with either 0.1% formic acid or 0.1% ammonium hydroxide for LC-MS analysis. The cell pullets were used to determine protein amount with the Bio-Rad DC Protein Assay using bovine serum albumin as a standard.
The LC-MS analytical method of 5′-mono amino acid ester prodrugs of floxuridine has been reported previously. The LC-MS analysis of dipeptide monoester prodrugs of floxuridine and gemcitabine along with their parent drugs was modified and performed in a similar manner. Briefly, LC-MS analysis of the uptake drug amount was performed in triplicate on LCMS-2010EV (Shimadzu Scientific Instruments, Kyoto, Japan) equipped with an ESI (electrospray ionization) source. The Shimadzu LC-MS system consisting of Shimadzu LC-20AD pumps with DGU-20A in-line vacuum degasser units, and SIL-20A HT autosampler with an InertSustain C-18, 2.1 × 50 mm, 3 µm particle size, (GL Sciences, Torrance, CA, USA) was used for the separation and the effluent from the column was introduced directly to the ionization source. The system was controlled by Shimadzu LCMS solution software (version 3) to collect and process data. All samples were run with Solvent A and Solvent B with Solvent B gradient changing from 0%–90% at a rate of 13.8%/min over a 22 min run. […]

Setting [4] is: 0.01 N HCl, 37 °C, read-out: 0.01 N HCl t1/2.
Setting [5] is: SIF pH 6.0, 37 °C, read-out: SIF pH 6.0 t1/2.
[6] abbreviates: pH 7.4 phosphate buffer, 37 °C, read-out: Buffer pH 7.4 t1/2.

Take “2′,2′-difluoro-2′-deoxyuridine [Gemcitabine]”: the “Peff, mouse perfusion” value in data set [1] (perfusion buffer pH 6.0) was 0.2 ± 0.2 ×10^−5 cm/s; in data set [1] (perfusion buffer pH 6.0, listed as gemcitabine), 2e-06 cm/s. Also, in data set [2] (0.01 N HCl, 37 °C), the “0.01 N HCl t1/2” value was more than 2 h. Further, the “SIF pH 6.0 t1/2” value in data set [2] (SIF pH 6.0, 37 °C) is listed as more than 120 min. The “Buffer pH 7.4 t1/2” value in data set [2] (pH 7.4 phosphate buffer, 37 °C) is reported as more than 120 min. Further, the “Parent drug, share of uptake” value in data set [3] was 90%.

Take `NC(Cc1ccccc1)C(=O)NC(Cc1ccc(O)cc1)C(=O)OCC1OC(n2cc(F)c(=O)[nH]c2=O)CC1O` [5′-L-Phenylalanyl-L-tyrosyl-floxuridine]: in data set [1] (perfusion buffer pH 6.0), the “Peff, mouse perfusion” value is recorded as 1.9 ± 0.1 ×10^−5 cm/s. Moreover, the “fold higher membrane permeability than parent drug” value in data set [1] is 19.0 fold. Further, the half-life in data set [2] (setting [4]), in data set [2] (setting [5]) and in data set [2] (setting [6]) was more than 2 h throughout. Also, in data set [3], the “Prodrug, share of uptake” value turned out to be 60%.

For `Nc1ccn(C2OC(COC(=O)C(Cc3ccc(O)cc3)NC(=O)C(N)Cc3ccccc3)C(O)C2(F)F)c(=O)n1` [5′-L-Phenylalanyl-L-tyrosyl-gemcitabine], the “Peff, mouse perfusion” value in data set [1] (perfusion buffer pH 6.0) was 2.2 ± 0.4 ×10^−5 cm/s. The “fold higher membrane permeability than parent drug” value in data set [1] came to 11.0 fold. Further, the half-life was more than 2 h in data set [2] (setting [4]), more than 2 h in data set [2] (setting [5]) and 0.56 ± 0.0233 h in data set [2] (setting [6]). In data set [3], the “Prodrug, share of uptake” value came out at 39%.

For the molecule `O=c1[nH]c(=O)n([C@H]2C[C@H](O)[C@@H](CO)O2)cc1F` [Floxuridine, 5-fluoro-2′-deoxyuridine], the “Peff, mouse perfusion” value in data set [1] (perfusion buffer pH 6.0) was 0.1 ± 0.8 ×10^−5 cm/s; in data set [1] (perfusion buffer pH 6.0, listed as floxuridine), 1e-06 cm/s. Moreover, the half-life in data set [2] (setting [4]), in data set [2] (setting [5]) and in data set [2] (setting [6]) was more than 2 h throughout.
